Experimental data published in patent US12564597B2 (priority 2020, dated 2026).

Key:
[1] = Plasma pharmacokinetics and brain distribution in male Wistar rats after a single intraperitoneal dose
Experimental: Formulation strengths for intraperitoneal administration was 4 mg/mL. A weighed quantity of compound was combined with an appropriate volume of vehicle (10% ethanol and 90% normal saline), the mixture was warmed to 55° C. and vortexed until a clear yellowish solution was obtained. The dosing volume administered was 10 mL/kg for intraperitoneal route.
Healthy male Wistar rats (8-12 weeks old) weighing between 280 to 300 g were procured from Global, India. Three rats were housed in each cage. […] Temperature and humidity were recorded by auto-controlled data logger system. All the animals were provided laboratory rodent diet (Envigo Research private Ltd, Hyderabad). Reverse osmosis water treated with ultraviolet light was provided ad libitum.
Blood samples (approximately 120 μL) were collected under light isoflurane anesthesia from retro orbital plexus from a set of three rats at specified time intervals. Samples were collected into labeled micro-tubes, containing K2EDTA solution (10 μL of 20% K2EDTA of solution per mL of blood) as an anticoagulant. Plasma was immediately harvested from the blood by centrifugation at 4000 rpm for 10 min at 4±2° C. and stored below −70±10° C. until bioanalysis.
Immediately, after blood collection animals were euthanized with excess CO2 and brain was isolated at each time point. Brain was rinsed three times in ice cold PBS (for 5-10 seconds/rinse using ˜5-10 mL fresh PBS in disposable petri dish for each rinse) and dried on blotting paper. Brain samples were homogenized using ice-cold phosphate buffer saline (pH 7.4) and homogenates were stored below −70±10° C. until analysis. Total homogenate volume was three times the tissue weight.
The extraction procedure for plasma and brain samples and the spiked plasma and brain calibration standards were identical: A 25 PL of study sample or spiked plasma and brain calibration standard was added to individual pre-labeled micro-centrifuge tubes followed by 100 PL of internal standard prepared in Acetonitrile (Glipizide, 500 ng/mL) was added except for blank, where 100 μL of Acetonitrile was added. Samples were vortexed for 5 minutes and then centrifuged for 10 minutes at a speed of 4000 rpm at 4° C. Following centrifugation, 100 μL of clear supernatant was transferred to a 96 well plate and analyzed using LC-MS/MS.
Non-compartmental analysis tool of Phoenix WinNonlin® (Version 7.0) was used to assess the pharmacokinetic parameters. Peak plasma concentrations (Cmax) and time for the peak plasma concentrations (Tmax) were the observed values. The areas under the concentration time curve (AUClast and AUCinf) were calculated by linear trapezoidal rule. The terminal elimination rate constant, ke was determined by regression analysis of the linear terminal portion of the log plasma concentration-time curve.

[2] = in vitro; settings: for Percentage turnover of test compounds (percent remaining): 10 μM, +NADPH
Experimental: (§1) Metabolism Studies. Metabolic stability of test compounds was evaluated in liver microsomes from rat (RLM) and human (HLM). This was accomplished by incubating test compounds with microsomes and monitoring disappearance of parent compound as well as metabolite formation over time using LC-MS/MS in Multiple Reaction Monitoring mode (MRM).
(§2) Stock solutions of test compounds were prepared in DMSO at a concentration of 10 mM.
(§3) Total Incubation volume: 100 μL
(§4) Compound concentration: 10 μM
(§5) Protein Concentration: 0.5 mg/mL (0.25 mg/mL for positive controls)
(§6) From the above mix, 70 PL was added to individual wells of 96 well reaction plates and pre-incubated at 37° C. for 5 min. […] Reactions without NADPH and buffer controls (minus NADPH) at 0 min and 60 min were also incubated to rule out non-NADPH metabolism or chemical instability in the incubation buffer. All reactions were terminated using 100 μL of ice-cold acetonitrile containing internal standard (glipizide) at 0, 5, 15, 30 and 60 min.
(§7) Stock solution of noribogaine was prepared in DMSO at a concentration of 20 mM and serially diluted in DMSO to prepare 10, 3, 1, 0.3, 0.1 and 0.03 mM solutions respectively.
(§8) Samples were monitored for parent compounds disappearance and formation of metabolite in MRM mode using LC-MS/MS instrument (API-4000 with Waters UPLC).
(§9) The percent remaining of test compounds and positive control in each sample was determined by considering peak area ratio in the 0 minute sample as 100%.
(§10) In vitro intrinsic clearance (CL′int) (units in mL/min/kg) was calculated using the formula: […]
(§11) For human, monkey, dog, rat and mouse the liver weight are 20 gm, 32 gm, 32 gm, 40 gm and 90 gm respectively.

[3] = Metabolic stability and noribogaine formation in rat liver microsomes (RLM); settings: for Percentage turnover of test compounds (percent remaining): 10 μM, +NADPH
Experimental: as §1, §2, §3, §4, §5, §6, §7, §8, §9, §10, §11

[4] = Buffer control for chemical instability in the incubation buffer; assay type: physicochemical; settings: Kphos buffer pH 7.4, 37° C., no microsomes, minus NADPH
[5] = 0.08 h after CD3O-ibogamine 40 mg/kg i.p.
[6] = 0.5 h after CD3O-ibogamine 40 mg/kg i.p.
[7] = 1 h after CD3O-ibogamine 40 mg/kg i.p.
[8] = 2 h after CD3O-ibogamine 40 mg/kg i.p.
[9] = 3 h after CD3O-ibogamine 40 mg/kg i.p.
[10] = male, Wistar, rat, in vivo, ip, 40 mg/kg, brain, analyte after CD3O-ibogamine 40 mg/kg i.p.
[11] = male, Wistar, rat, in vivo, ip, 40 mg/kg, plasma, analyte after CD3O-ibogamine 40 mg/kg i.p.

Question: What does the source list for `[2H]C([2H])([2H])Oc1ccc2[nH]c3c(c2c1)CCN1C[C@H]2C[C@H](CC)C1[C@H]3C2` [CD3O-ibogamine]?
Answer: Mean brain concentration [1, 5]: 11340 ng/g; Mean plasma concentration [1, 5]: 1229 ng/mL; Mean brain concentration [1, 6]: 6647 ng/g; Mean plasma concentration [1, 6]: 698 ng/mL; Mean brain concentration [1, 7]: 5363 ng/g; Mean plasma concentration [1, 7]: 620 ng/mL; Mean brain concentration [1, 8]: 3941 ng/g; Mean plasma concentration [1, 8]: 343 ng/mL; Mean brain concentration [1, 9]: 4684 ng/g; Mean plasma concentration [1, 9]: 473 ng/mL; AUClast ([1]; brain, analyte after CD3O-ibogamine 40 mg/kg i.p.): 16357.31 ng·h/g; AUC(0-t) ([1]; male, Wistar, rat, in vivo, ip, 40 mg/kg, AUClast, plasma, analyte after CD3O-ibogamine 40 mg/kg i.p.): 1700 ng·h/mL; Cmax [1, 10]: 11300 ng/g; Cmax [1, 11]: 1230 ng/mL; Tmax [1, 10]: 4.8 min; Tmax [1, 11]: 4.8 min; difference of plasma concentration versus ibogaine (lower for CD3O-ibogamine) ([1]; single i.p. dose 40 mg/kg): approximately 25%; maximum brain concentration as percent of the ibogaine concentration detected after its administration ([1]; single i.p. dose 40 mg/kg): ~43%; CLh, int ([2]; HLM): 42 mL/min/kg; metabolic degradation, times faster compared to that of ibogaine ([2]; HLM): more than 2 ×; Percentage turnover of test compounds (percent remaining) ([2]; HLM, 0 min): 100%; Percentage turnover of test compounds (percent remaining) ([2]; HLM, 5 min): 98%; Percentage turnover of test compounds (percent remaining) ([2]; HLM, 15 min): 83%; Percentage turnover of test compounds (percent remaining) ([2]; HLM, 30 min): 67%; Percentage turnover of test compounds (percent remaining) ([2]; HLM, 60 min): 25%; % Remaining at 60 min (+NADPH) ([2]; HLM, summary): 25%; % Remaining at 60 min (−NADPH) ([2]; HLM, without NADPH): 105%; half-life ([2]; human, microsomes, pH 7.4): 30 min; CLh, int ([3]; RLM): 742 mL/min/kg; t1/2 ([3]; RLM): <5 min; Percentage turnover of test compounds (percent remaining) ([3]; RLM, 0 min): 100%; Percentage turnover of test compounds (percent remaining) ([3]; RLM, 5 min): 36%; Percentage turnover of test compounds (percent remaining) ([3]; RLM, 15 min): 0%; Percentage turnover of test compounds (percent remaining) ([3]; RLM, 30 min): 1%; Percentage turnover of test compounds (percent remaining) ([3]; RLM, 60 min): 0%; % Remaining at 60 min (+NADPH) ([3]; RLM, summary): 0%; % Remaining at 60 min (−NADPH) ([3]; RLM, without NADPH): 105%; metabolism compared to ibogaine in the in vitro study ([3]; in vitro microsome study): metabolized faster than ibogaine; half-life at 10 μM ([3]; male, rat, microsomes, pH 7.4): < 5 min; total amount of noribogaine produced compared to ibogaine ([3]; short incubation period (~5 min)): comparable; % Remaining at 60 min (Buffer) [4]: 90%
